Experimental data as given in PubChem BioAssay AID1421 (Emory University Molecular Libraries Screening Center, 2008).
“And” between values parts separate entries of the source, which are not always exact repeats. Equal values may be shown once. The source made the active and inactive calls. How the calls were made is not given here.

Target: Prostaglandin E2 receptor EP2 subtype (Homo sapiens) (UniProt P43116)
Assay: compounds shifting PGE2 potency at EP2 – cell-based, human EP2, PGE2 EC50 shift, dose response (AID 1421)
Details: EP2-expressing cells, PGE2 EC50 shift by compound

Prostaglandin E2 receptor EP2 subtype (Homo sapiens), sequence (P43116 whole entry, looked up): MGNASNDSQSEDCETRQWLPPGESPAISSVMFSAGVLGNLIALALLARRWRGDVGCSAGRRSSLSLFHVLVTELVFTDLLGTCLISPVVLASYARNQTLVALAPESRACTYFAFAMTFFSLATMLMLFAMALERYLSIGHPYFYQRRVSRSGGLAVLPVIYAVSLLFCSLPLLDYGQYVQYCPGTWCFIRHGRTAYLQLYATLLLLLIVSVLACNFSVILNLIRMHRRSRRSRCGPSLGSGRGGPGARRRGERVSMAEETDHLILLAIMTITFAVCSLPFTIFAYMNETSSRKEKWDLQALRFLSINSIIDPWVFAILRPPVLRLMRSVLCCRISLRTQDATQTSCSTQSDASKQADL

Compound | outcome
CCOCC(=O)Nc1sc2c(c1C(=O)OCC)CCCC2 | active
Cc1ccccc1C(=N)c1ccccc1Cc1cccc2ccccc12 | active
O=c1[nH]c2ccc(Cl)cc2c(-c2ccccc2)c1N1CCOCC1 | active
C/C(CCc1oc2ccc(Cl)cc2c1-c1ccc(C)o1)=N\O | active
NC(=NCCC[C@H](N)C(=O)O)N[N+](=O)[O-] | active
Cc1ccc(C(=O)c2c(NC(=O)c3ccncc3)sc3c2CCCC3)cc1 | active
Cn1c(=O)c(NC2CCCCC2)c2c3c(cccc31)C(=O)c1ccccc1-2 | active
CC(C)OC(=O)CSc1nc(Cc2ccccc2)nc2ccccc12 | active
Cc1cc(C#N)c(SCC(N)=O)nc1-c1ccc(F)cc1 | active
CCCCCc1ccc(-c2ccc(=O)[nH]n2)cc1 | active
CC(C)CCNC(=O)c1c(N)n(CC2CCCO2)c2nc3ccccc3nc12 (configuration not stated) | active

Same assay, conditions: EP2-expressing cells, PGE2 EC50 shift by compound; measured here: PGE2 EC50 at 6.7 uM compound

Compound | PGE2 EC50 with compound
CC12CCCC(O)(C1)C1CC(C)(C)C1CC2 (configuration not stated) | 1.55 nM
CCOC(=O)c1c(-c2ccc(C)o2)csc1NC(=O)CN1CCCCC1 | 0.73 nM
O=c1[nH]c(N/N=C/c2ccccc2)nc2ccccc12 | 0.74 nM
CCOCC(=O)Nc1sc2c(c1C(=O)OCC)CCCC2 | 1.18 nM
CCc1ccc(Nc2oc(C)cc(=O)c2C(C)=O)cc1 | 1.55 nM
O=C(O)CSc1cc(-c2ccccc2)nc2ccccc12 | 2.55 nM
COC(=O)c1ccc(-c2ccco2)n1Cc1ccccc1Cl | 1.03 nM
CCOP(=O)(OCC)c1nc(-c2ccc(C)cc2)oc1NCc1ccccc1 | 0.83 nM
COc1cccc2[nH]c3c(N4CCCC(C)C4)ncnc3c12 (configuration not stated) | 23.2 nM
CCOC(=O)Cc1csc(NC(NC(=O)CC)(C(F)(F)F)C(F)(F)F)n1 | 1.03 nM
CC(=O)O[C@@H]1c2c(ccc3ccc(=O)oc23)OC(C)(C)[C@@H]1OC(=O)CC(C)C | 0.92 nM
COC(=O)c1c(NC(=O)Cc2cccs2)sc2c1CCCC2 | 1.02 nM
Cc1ccccc1C(=N)c1ccccc1Cc1cccc2ccccc12 | 0.33 nM
O=c1[nH]c2ccc(Cl)cc2c(-c2ccccc2)c1N1CCOCC1 | 1.13 nM
c1ccn(-c2ncnc3sc4c(c23)CCCC4)c1 | 1.45 nM
CCc1cc2cc(C)cc(C)c2nc1SCC(=O)N1CCCC1 | 3.07 nM
C=CCc1cc(C=O)cc(OCC)c1OCc1ccc(Cl)cc1 | 1.29 nM
COc1ccc(-n2c(COc3cccc4ccccc34)nnc2SCC#N)cc1 | 1.19 nM
C=CCn1c(SCc2c(C)noc2C)nc2sc(C)c(C)c2c1=O | 0.62 nM
Cc1noc(C)c1COC(=O)C(c1ccccc1)c1ccccc1 | 1.27 nM
CCn1c2ccccc2c2cc(Nc3cc(C)nc4ncnn34)ccc21 | 2.83 nM
CCn1c(COc2ccc(Cl)cc2)nnc1SCC(=O)Nc1ccc2c(c1)OCO2 | 1.09 nM

Compound | PGE2 EC50 with compound
CC1(C)C=Cc2c(c3c(c4c(=O)c(-c5ccc(O)cc5)coc24)OC(C)(C)CC3)O1 | 1.11 nM
CCOC(=O)c1c(-c2ccc(-c3ccccc3)cc2)csc1NC(=O)CCN1CCOCC1 | 1.34 nM
CCCn1c(-c2cccs2)nc2c1c(=O)[nH]c(=O)n2Cc1ccccc1 | 2.78 nM
Cc1cc(NC(=O)CN2CCCC(C)C2)n(-c2nc3ccccc3s2)n1 (configuration not stated) | 0.75 nM
C/C(CCc1oc2ccc(Cl)cc2c1-c1ccc(C)o1)=N\O | 0.81 nM
O=c1cc(N2CCCCC2)c(-c2ccccc2)nn1Cc1cccc(F)c1 | 0.33 nM
CCOC(=O)Nc1sc2c(c1C(=O)OCC)CCC2 | 0.84 nM
O=S(=O)(c1ccc(F)cc1)c1snnc1-c1ccccc1 | 0.89 nM
CCOC(=O)CSc1nnc2n(C3CCCCC3)c(=O)c3c4c(sc3n12)CCCC4 | 1.13 nM
CCCCOC(=O)n1c(=S)oc2cc(Cl)ccc21 | 0.85 nM
Cc1ccccc1Nc1c(-c2ccccn2)nc2ccccn12 | 1.55 nM
CCc1ccc2[nH]c(=O)c(C(c3nnnn3CC3CCCO3)N3CCCc4ccccc43)cc2c1 (configuration not stated) | 0.99 nM
CC(CC(=O)O)(CC(=O)O)C(=O)O | 0.87 nM
CN(C)c1nc(-c2ccccc2)c2cnn(Cc3ccccc3)c2n1 | 1.12 nM
FC(F)(F)c1cccc(-c2cc3ccccc3nc2N2CCCC2)c1 | 1.36 nM
COC(=O)c1ccccc1NC(=O)C(C)Oc1ccccc1 (configuration not stated) | 0.9 nM
COc1ccc2c(-c3ccccc3)cc(N3CCOCC3)nc2c1 | 0.74 nM
CC(OC(=O)c1oc2ccccc2c1COc1ccccc1)C(=O)NC(N)=O (configuration not stated) | 2.83 nM
CC1CCN(c2nc3c(c(=O)[nH]c(=O)n3C)n2CC(C)CSc2nnnn2-c2ccccc2)CC1 (configuration not stated) | 1.27 nM
COC(=O)C1=C(C)N(C)C(C)=C(C(=O)OC)C1c1cccc(Br)c1 | 0.97 nM
O=C(O)c1ccc(CNCc2cccc(Cl)c2Cl)cc1 | 0.88 nM
O=C(O)COc1ccc2occ(C(=O)c3ccccc3)c2c1 | 0.86 nM

Compound | PGE2 EC50 with compound
COc1cccc2[nH]c3c(N4CC(C)CC(C)C4)ncnc3c12 (configuration not stated) | 1.15 nM
O=C(CN1CCCCC1)N1c2ccccc2Sc2ccc(C(F)(F)F)cc21 | 1.45 nM
COC(=O)c1ccc(-c2ccco2)n1Cc1cccc(C)c1 | 2.63 nM
CC(=O)c1ccc(-n2c(C)ccc2-c2ccccc2)cc1 | 2.52 nM
Cc1ccc(-c2nc3ccccc3nc2Cl)cc1 | 0.49 nM
C=CCN1C(=O)N(/C=C/C)c2cccc3cccc1c23 | 2.79 nM
C=CCc1cccc(C=Nc2cc(Br)ccc2O)c1O | 0.89 nM
Cc1ccn2c(Nc3ccccc3C)c(-c3ccccn3)nc2c1 | 0.73 nM
NC(=NCCC[C@H](N)C(=O)O)N[N+](=O)[O-] | 1.93 nM
COc1ccc(OC)c(C2=Nn3c(nnc3-c3ccco3)SC2)c1 | 0.93 nM
CN(C)c1ncc(S(=O)(=O)c2ccccc2)c(-c2ccccc2Cl)n1 | 0.72 nM
Cc1ccc(Nc2cc(C)nc3c(C)ccc([N+](=O)[O-])c23)cc1 | 0.73 nM
CCOC(=O)c1cnn(-c2nc(-c3ccc(F)cc3)cs2)c1C(F)(F)F | 1.04 nM
Cc1ccc(C)n1-c1sc2c(c1C#N)CCCC2 | 2.65 nM
Cc1ccc2c(c1)N(S(=O)(=O)c1ccc(F)cc1)C(C(C)(C)C)CO2 (configuration not stated) | 1.11 nM
O=C(Nc1ccccc1N1CCCCC1)c1ccc(F)cc1 | 1.01 nM
c1ccc2c(c1)OCC(c1csc3ncnc(N4CCCCC4)c13)O2 (configuration not stated) | 2.54 nM
C=CCc1cc(C=C2C(=O)N(C)C(=O)N(C)C2=O)cc(OCC)c1OCc1ccccc1 | 0.94 nM
O=C(CSc1nc2ccccc2o1)Nc1cc(C(F)(F)F)ccc1N1CCOCC1 | 0.77 nM
Cc1c(C(=O)Nc2cccc3cccnc23)oc2ccccc12 | 0.72 nM
CO/N=C/C(=N\Nc1ccccc1)C(=O)c1ccccc1 | 0.59 nM
Cc1ccc(C(=O)c2c(NC(=O)c3ccncc3)sc3c2CCCC3)cc1 | 0.66 nM

Compound | PGE2 EC50 with compound
O=C(Nc1ccc2c(c1)OCO2)c1cccc2c1C(=O)N(C1CCCCC1)C2 | 0.8 nM
CCOc1ccc(Cl)cc1S(=O)(=O)n1cnc2cc(C)c(C)cc21 | 1.16 nM
Cc1cc(C)cc(OC2CCCCC2NS(=O)(=O)c2ccccc2)c1 (configuration not stated) | 1.62 nM
CCOC(=O)c1cnc2c(c(C)nn2C)c1Oc1ccc(Cl)cc1 | 1.29 nM
O=c1cc(N2CCCCC2)c(-c2ccccc2)nn1Cc1ccccc1Cl | 0.65 nM
S=c1[nH]nc(-c2ccc3ccccc3n2)n1Cc1ccccc1 | 0.91 nM
O=C(Nc1ccccc1)c1nn(-c2cccc(C(F)(F)F)c2)ccc1=O | 2.72 nM
Cc1ccccc1CSCC(=O)Nc1ccccc1-c1ccccc1 | 1.02 nM
Cc1ccc2[nH]c3c(=S)nc[nH]c3c2c1 | 2.83 nM
COc1ccc(-c2nn3c(-c4ccccc4)nnc3s2)cc1 | 0.66 nM
Cc1ccnc(SCC(=O)n2c3c(c4ccccc42)CC(C)CC3)n1 (configuration not stated) | 0.86 nM
Cn1c(=O)c(NC2CCCCC2)c2c3c(cccc31)C(=O)c1ccccc1-2 | 0.55 nM
O=C(O)CCSc1ccc2ccccc2n1 | 2.87 nM and 2.98 nM
CCOC(=O)c1c(NC(=O)c2cccs2)sc2c1CCN(C(=O)OCC)C2 | 1.53 nM
CC(C)OC(=O)CSc1nc(Cc2ccccc2)nc2ccccc12 | 1.14 nM
O=C(CSc1ncnc2c1oc1ccccc12)Nc1cccc(F)c1 | 3.15 nM
N#CCCSc1ncnc2c1oc1ccccc12 | 1.52 nM
c1ccc(-c2noc(-c3cccc4ccccc34)n2)cc1 | 1.18 nM
Cc1noc(C)c1CSc1nc2ccccc2c(=O)n1-c1ccc(F)cc1F | 1.09 nM
CCC(=O)N1CCN(c2nc(-c3ccccc3)c3c(c2C#N)CCCC3)CC1 | 0.91 nM
Cc1cc(C#N)c(SCC(N)=O)nc1-c1ccc(F)cc1 | 1.4 nM
COc1cccc2[nH]c3c(N4CCCCC4)ncnc3c12 | 0.6 nM

Compound | PGE2 EC50 with compound
c1ccc(Oc2nc3ccccc3n3cccc23)cc1 | 0.86 nM
Cc1cc2c3c(c1)C1(SCC(=O)N1c1ccc(F)cc1)C(=O)N3C(C)(C)CC2C (configuration not stated) | 2.59 nM
CCOc1cccc(CNc2ccc(O)cc2)c1OCc1ccccc1Cl | 0.62 nM
COc1cc(OC)cc(-c2nc(N)n[nH]2)c1 | 0.8 nM
C=C[C@@](C)(O)CCC1C(=C)C[C@H](O)C2C(C)(C)CCCC12C (some centres not stated) | 2.91 nM
Cn1c(=O)c2c(nc(SCC(=O)c3cccs3)n2Cc2ccc(F)cc2)n(C)c1=O | 0.99 nM
COc1cccc2[nH]c3c(N4CCC(C)CC4)ncnc3c12 | 2.38 nM
Cc1cc(NC(=O)c2cc(-c3ccncc3)nc3c(C)cccc23)no1 | 1.16 nM
CCN(Cc1ccccc1)C(c1cc2cc(C)cc(C)c2[nH]c1=O)c1nnnn1CCOC (configuration not stated) | 1.28 nM
CCCCCc1ccc(-c2ccc(=O)[nH]n2)cc1 | 1.44 nM
O=c1cc(N2CCCCC2)c(-c2ccccc2)nn1Cc1ccc(F)cc1 | 2.5 nM
O=C(O)/C=C/c1ccccc1Oc1ccc(Cl)cc1Cl | 1.21 nM
COC(=O)c1cc2ccsc2n1Cc1ccccc1F | 0.83 nM
COc1ccccc1Nc1cc(C)nc2c(C)ccc([N+](=O)[O-])c12 | 1.12 nM
Cn1c(=O)c2c(SC3CCCC3)nc(C3CC3)nc2n(C)c1=O | 0.61 nM
CCOP(=O)(c1ccccc1)c1nc(-c2ccccc2Cl)oc1N1CCCCC1 (configuration not stated) | 1.02 nM
CC(C)CCNC(=O)c1c(N)n(CC2CCCO2)c2nc3ccccc3nc12 (configuration not stated) | 0.95 nM
COc1cc2c(cc1OC)CN(c1ccc(-c3ccccc3OC)nn1)CC2 | 1.64 nM
